Assay: recombinant UMI read abundance after kanamycin selection (control-corrected) (log10(CPM+1)); higher = more efficient recombination; extreme values may be limits of the assay; sequences stand for … in AGTGCAGAGAAAATCGGCCAGTTTTCTCTGCCTGCAGTCCGCATGCCGTGGGACCCCTTGGGTTCTAACCTGTTGCCTAGATTTATGCAGCGGACTGCCTTTCTCCCAAAGTGATAAACCGG…AGGTTGGTTTCACT; site = the 11-nt donor
How it was run: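 Values, expressed as log10(CPM+1), derive from recombinant UMI counts converted to CPM, averaged across replicates and scaled by control-derived factors. Plating was with IPTG (0.07 mM) plus kanamycin or unselected, two replicates each. The screen pooled donor and donor-binding-loop pairs for the IS621 bridge recombinase in Escherichia coli.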
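Further: IS621 bridge recombinase in Escherichia coli cells against a fixed T5 target plasmid.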

Sequence	recombinant UMI read abundance (log10)
CTATTACCATGGACCGGTTTTCCCGGTAATCCGTATTTGAC (site CTAGTATCTGT)	0
CTATTACCATGGACCGGTTTTCCCGGTAATCCGTATTTGAC (site CTATTACCTGT)	0
CTATTCCCATGGACCGGTTTTCCCGGTAATCCGTATTTGTT (site CTATTCCCTAA)	1.42
CTCAAGACATGGACCGGTTTTCCCGGTAATCCGTATTTGGG (site CTCAAGACTCC)	0
CTCATATCATGGACCGGTTTTCCCGGTAATCCGTATTTGTC (site CACATATCTGA)	0.65
CTCATATCATGGACCGGTTTTCCCGGTAATCCGTATTTGTC (site CCCATATCTGA)	0.718
CTCATATCATGGACCGGTTTTCCCGGTAATCCGTATTTGTC (site CGCATATCTGA)	0
CTCATATCATGGACCGGTTTTCCCGGTAATCCGTATTTGTC (site CTCATATCTGA)	1.5
CTCATCGCATGGACCGGTTTTCCCGGTAATCCGTATTTGCC (site CTCATCGCTGG)	0.346
CTCCACACATGGACCGGTTTTCCCGGTAATCCGTATTTGGG (site CTCCACACTCC)	0.0377
CTCCAGCCATGGACCGGTTTTCCCGGTAATCCGTATTTGAG (site CTCCAGCCTCT)	0.0271
CTCCCCACATGGACCGGTTTTCCCGGTAATCCGTATTTGAG (site CTCCCAACTCT)	0.00953
CTCCCCACATGGACCGGTTTTCCCGGTAATCCGTATTTGAG (site CTCCCCACTCT)	0.891
CTCCCCACATGGACCGGTTTTCCCGGTAATCCGTATTTGAG (site CTCCCGACTCT)	0.0121
CTCCCCACATGGACCGGTTTTCCCGGTAATCCGTATTTGAG (site CTCCCTACTCT)	0
CTCCCTACATGGACCGGTTTTCCCGGTAATCCGTATTTGCG (site CTCCCTACTCA)	0.397
CTCCCTACATGGACCGGTTTTCCCGGTAATCCGTATTTGCG (site CTCCCTACTCC)	0.0203
CTCCCTACATGGACCGGTTTTCCCGGTAATCCGTATTTGCG (site CTCCCTACTCG)	0.488
CTCCCTACATGGACCGGTTTTCCCGGTAATCCGTATTTGCG (site CTCCCTACTCT)	0.55
CTCCGGCCATGGACCGGTTTTCCCGGTAATCCGTATTTGCT (site CTCCGGCCTAG)	0.589
CTCCGTACATGGACCGGTTTTCCCGGTAATCCGTATTTGAG (site CTCCATACTCT)	0.649
CTCCGTACATGGACCGGTTTTCCCGGTAATCCGTATTTGAG (site CTCCCTACTCT)	0.0126
CTCCGTACATGGACCGGTTTTCCCGGTAATCCGTATTTGAG (site CTCCGTACTCT)	0.509
CTCCGTACATGGACCGGTTTTCCCGGTAATCCGTATTTGAG (site CTCCTTACTCT)	0.0158
CTCCTCCCATGGACCGGTTTTCCCGGTAATCCGTATTTGAC (site CTCCTCCCTGT)	1.49

Sequence	recombinant UMI read abundance (log10)
CTCCTCGCATGGACCGGTTTTCCCGGTAATCCGTATTTGAA (site CTCCTCGCTTT)	1.06
CTCCTCTCATGGACCGGTTTTCCCGGTAATCCGTATTTGTA (site CTACTCTCTTA)	0.176
CTCCTCTCATGGACCGGTTTTCCCGGTAATCCGTATTTGTA (site CTCCTCTCTTA)	2.45
CTCCTCTCATGGACCGGTTTTCCCGGTAATCCGTATTTGTA (site CTGCTCTCTTA)	0.0102
CTCCTCTCATGGACCGGTTTTCCCGGTAATCCGTATTTGTA (site CTTCTCTCTTA)	0
CTCCTTGCATGGACCGGTTTTCCCGGTAATCCGTATTTGTA (site CTCCTTGCTTA)	0
CTCGAATCATGGACCGGTTTTCCCGGTAATCCGTATTTGAC (site CTAGTATCTGT)	0.00618
CTCGAATCATGGACCGGTTTTCCCGGTAATCCGTATTTGAC (site CTCGAATCTGT)	1.76
CTCGACACATGGACCGGTTTTCCCGGTAATCCGTATTTGCT (site CTCAACACTAG)	1.72
CTCGACACATGGACCGGTTTTCCCGGTAATCCGTATTTGCT (site CTCCACACTAG)	1.93
CTCGACACATGGACCGGTTTTCCCGGTAATCCGTATTTGCT (site CTCGACACTAG)	2.25
CTCGACACATGGACCGGTTTTCCCGGTAATCCGTATTTGCT (site CTCTACACTAG)	2.03
CTCGCACCATGGACCGGTTTTCCCGGTAATCCGTATTTGTC (site CTCGCACCTGA)	0
CTCGTCTCATGGACCGGTTTTCCCGGTAATCCGTATTTGAC (site CTAGTATCTGT)	0
CTCGTCTCATGGACCGGTTTTCCCGGTAATCCGTATTTGAC (site CTCGTCTCTGT)	1.54
CTCTACACATGGACCGGTTTTCCCGGTAATCCGTATTTGCA (site CTCTACACTAG)	1.37
CTCTACACATGGACCGGTTTTCCCGGTAATCCGTATTTGCA (site CTCTACACTCG)	0.499
CTCTACACATGGACCGGTTTTCCCGGTAATCCGTATTTGCA (site CTCTACACTGG)	1.53
CTCTACACATGGACCGGTTTTCCCGGTAATCCGTATTTGCA (site CTCTACACTTG)	2.37
CTCTACACATGGACCGGTTTTCCCGGTAATCCGTATTTGGT (site CTCTACACTAA)	0.0359
CTCTACACATGGACCGGTTTTCCCGGTAATCCGTATTTGGT (site CTCTACACTAC)	0.0415
CTCTACACATGGACCGGTTTTCCCGGTAATCCGTATTTGGT (site CTCTACACTAG)	0.21
CTCTACACATGGACCGGTTTTCCCGGTAATCCGTATTTGGT (site CTCTACACTAT)	0.203
CTCTAGTCATGGACCGGTTTTCCCGGTAATCCGTATTTGTG (site CTCTAGTCTCA)	1.99
CTCTTCACATGGACCGGTTTTCCCGGTAATCCGTATTTGCT (site CTCTACACTAG)	1.29

Sequence	recombinant UMI read abundance (log10)
CTCTTCACATGGACCGGTTTTCCCGGTAATCCGTATTTGCT (site CTCTCCACTAG)	1.14
CTCTTCACATGGACCGGTTTTCCCGGTAATCCGTATTTGCT (site CTCTGCACTAG)	0
CTCTTCACATGGACCGGTTTTCCCGGTAATCCGTATTTGCT (site CTCTTCACTAG)	2.46
CTCTTCTCATGGACCGGTTTTCCCGGTAATCCGTATTTGGG (site CACTTCTCTCC)	0
CTCTTCTCATGGACCGGTTTTCCCGGTAATCCGTATTTGGG (site CCCTTCTCTCC)	0.0128
CTCTTCTCATGGACCGGTTTTCCCGGTAATCCGTATTTGGG (site CGCTTCTCTCC)	0.014
CTCTTCTCATGGACCGGTTTTCCCGGTAATCCGTATTTGGG (site CTCTTCTCTCC)	0
CTCTTGGCATGGACCGGTTTTCCCGGTAATCCGTATTTGAA (site CTCTTGGCTTT)	1.08
CTCTTTGCATGGACCGGTTTTCCCGGTAATCCGTATTTGAC (site CTCTTTGCTGT)	0.503
CTGAACCCATGGACCGGTTTTCCCGGTAATCCGTATTTGTT (site CGGAATCCTAA)	0.0138
CTGAACCCATGGACCGGTTTTCCCGGTAATCCGTATTTGTT (site CTGAACCCTAA)	0.285
CTGAACTCATGGACCGGTTTTCCCGGTAATCCGTATTTGCG (site CTGAACTCTCG)	2.99
CTGAATCCATGGACCGGTTTTCCCGGTAATCCGTATTTGGT (site CGGAATCCTAA)	0.0153
CTGAATCCATGGACCGGTTTTCCCGGTAATCCGTATTTGGT (site CTGAATCCTAC)	0.615
CTGACATCATGGACCGGTTTTCCCGGTAATCCGTATTTGCT (site CAGACATCTAG)	1.06
CTGACATCATGGACCGGTTTTCCCGGTAATCCGTATTTGCT (site CCGACATCTAG)	1.39
CTGACATCATGGACCGGTTTTCCCGGTAATCCGTATTTGCT (site CGGACATCTAG)	0.00554
CTGACATCATGGACCGGTTTTCCCGGTAATCCGTATTTGCT (site CTGACATCTAG)	2.47
CTGACGACATGGACCGGTTTTCCCGGTAATCCGTATTTGTT (site CTGACGACTAA)	0.0946
CTGACTCCATGGACCGGTTTTCCCGGTAATCCGTATTTGTT (site CGGAATCCTAA)	0.00356
CTGACTCCATGGACCGGTTTTCCCGGTAATCCGTATTTGTT (site CTGACTCCTAA)	0.838
CTGATCCCATGGACCGGTTTTCCCGGTAATCCGTATTTGTG (site CTGATCCCTCA)	0.794
CTGCAAGCATGGACCGGTTTTCCCGGTAATCCGTATTTGTA (site CTGCAAGCTTA)	1.8
CTGCCATCATGGACCGGTTTTCCCGGTAATCCGTATTTGGT (site CTGCCATCTAC)	0
CTGCCCTCATGGACCGGTTTTCCCGGTAATCCGTATTTGTT (site CTGCCCTCTAA)	2.18

Source: the supplement of paper PMC11208160
